# Test results reported in ChEMBL document CHEMBL1201862, “PubChem BioAssay data set” (2004).
# Calls of active or inactive are those of the source.
# Tests used:
# Leucine aminopeptidase = target: T1, Leucine aminopeptidase (Plasmodium falciparum 3D7, UniProt Q8IL11); assay: P. falciparum M17LAP inhibitors, primary screen, biochemical, fluorogenic H-Leu-NHMec substrate, 1536-well (AID 1619); type: functional
# T1 sequence (Q8IL11 whole entry): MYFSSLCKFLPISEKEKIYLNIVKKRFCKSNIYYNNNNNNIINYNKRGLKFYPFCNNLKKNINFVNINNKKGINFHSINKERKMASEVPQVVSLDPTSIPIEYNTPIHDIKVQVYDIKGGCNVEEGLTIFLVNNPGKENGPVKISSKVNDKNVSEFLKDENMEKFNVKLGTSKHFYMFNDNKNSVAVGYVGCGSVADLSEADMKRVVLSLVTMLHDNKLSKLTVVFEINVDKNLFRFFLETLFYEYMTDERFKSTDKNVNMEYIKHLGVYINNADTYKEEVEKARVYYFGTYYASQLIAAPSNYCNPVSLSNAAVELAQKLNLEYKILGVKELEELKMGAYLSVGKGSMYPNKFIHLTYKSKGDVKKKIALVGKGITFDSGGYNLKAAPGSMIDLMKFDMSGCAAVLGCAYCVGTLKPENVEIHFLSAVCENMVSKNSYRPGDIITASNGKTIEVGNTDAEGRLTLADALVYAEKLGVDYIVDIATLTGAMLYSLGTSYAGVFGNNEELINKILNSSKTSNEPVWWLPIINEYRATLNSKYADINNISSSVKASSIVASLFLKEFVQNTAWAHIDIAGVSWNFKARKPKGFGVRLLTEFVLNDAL
# [1] = target: FAD-linked sulfhydryl oxidase ALR (Homo sapiens, UniProt P55789); assay: inhibitors of human ALR sulfhydryl oxidase, dose response, biochemical, H2O2 detection, luminescence, cherry-pick (AID 493248)
# Streptokinase A = target: T2, Streptokinase A (Streptococcus pyogenes serotype M1, UniProt P10520); assay: S. pyogenes streptokinase expression inhibitors, potency, dose response, plasminogen activation absorbance, OD405 (AID 1914); type: functional, Streptococcus pyogenes M1 GAS;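 also: secreted streptokinase activity via plasminogen activation per viability signal from cell pellet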
# T2 sequence (P10520 whole entry): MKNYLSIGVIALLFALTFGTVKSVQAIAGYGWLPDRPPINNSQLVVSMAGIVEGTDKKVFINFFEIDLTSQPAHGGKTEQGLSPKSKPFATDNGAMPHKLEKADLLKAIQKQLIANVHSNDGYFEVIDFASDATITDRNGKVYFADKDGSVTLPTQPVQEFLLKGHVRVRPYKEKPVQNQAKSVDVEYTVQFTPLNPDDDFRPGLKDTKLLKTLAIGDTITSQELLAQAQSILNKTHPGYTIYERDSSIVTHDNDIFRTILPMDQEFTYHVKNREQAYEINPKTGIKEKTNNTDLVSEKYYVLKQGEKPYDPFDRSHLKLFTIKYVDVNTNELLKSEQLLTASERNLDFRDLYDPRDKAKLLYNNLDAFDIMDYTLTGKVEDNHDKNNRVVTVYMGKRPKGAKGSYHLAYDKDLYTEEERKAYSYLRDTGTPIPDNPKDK
# Streptococcus = assay: Group A Streptococcus viability loss, dose response, counter-screen for streptokinase expression inhibitor project, luminescence, BacTiterGlo (AID 1915); type: functional, organism-based;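 also: potency for reduction of bacterial viability or growth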
# [2] = growth suppression of PTEN-null colon cells, dose response, cell-based, HCT116 PTEN knockout (AID 1047); type: functional;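 also: HCT116 colon tumor cells with PTEN knocked out; cells exposed to compound for 60 hours before readout; potency for loss of cell viability measured by luminescence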
# [3] = growth suppression of beta-catenin-knockout colon cells, dose response, cell-based, HCT116, human colon tumor (AID 1045); type: functional;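 also: HCT116 colon tumor cells with beta catenin knocked out; cells exposed to compound for 60 hours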
# [4] = cytotoxicity toward NIH3T3 fibroblasts, dose response, counter-screen, cell-based, ATP luminescence, mouse fibroblasts (AID 2010); type: functional;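 also: cells exposed to compound for about 90 hours before reading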
# [5] = inhibitors of intracellular T. cruzi replication, confirmation, NIH3T3 host cells, beta-gal luminescence (AID 2044); type: functional, cell-based;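 also: intracellular parasites grown in NIH/3T3 mouse fibroblasts as host cells; luminescent beta-galactosidase reporter signal from transgenic T. cruzi replicating inside host cells; inhibitors lower the luminescence signal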
# [6] = test system: Streptococcus sp. 'group A'; assay: growth inhibition of control SK(-) GAS strain, dose response, counter-screen for streptokinase expression inhibitor project, luminescence, kanamycin, BacTiterGlo, confirmation (AID 1900); type: functional, organism-based
# BJ [7] = assay: cytotoxicity toward BJ-TERT fibroblasts, dose response, cell-based, RAS-independent, luminescence (AID 1933); type: functional; settings: Homo sapiens
# BJ [8] = assay: cells; type: functional, cell-based; settings: Homo sapiens
# [9] = cytotoxicity toward DRD oncogenic fibroblasts, dose response, cell-based, non-viral oncogenic, luminescence (AID 1934); type: functional; settings: Homo sapiens
# BJ [10] = assay: cytotoxicity toward BJ-TERT-LT-ST fibroblasts, dose response, cell-based, RAS-independent, luminescence (AID 1935); type: functional; settings: Homo sapiens;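 also: BJ fibroblasts immortalized with TERT plus LT and ST oncogenes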
# [11] = target: T3, Zinc finger protein mex-5 (Caenorhabditis elegans, UniProt Q9XUB2); assay: MEX-5/TCR-2 RNA interaction inhibitors, dose response, biochemical, C. elegans, fluorescence polarization (AID 1960)
# T3 sequence (Q9XUB2 whole entry): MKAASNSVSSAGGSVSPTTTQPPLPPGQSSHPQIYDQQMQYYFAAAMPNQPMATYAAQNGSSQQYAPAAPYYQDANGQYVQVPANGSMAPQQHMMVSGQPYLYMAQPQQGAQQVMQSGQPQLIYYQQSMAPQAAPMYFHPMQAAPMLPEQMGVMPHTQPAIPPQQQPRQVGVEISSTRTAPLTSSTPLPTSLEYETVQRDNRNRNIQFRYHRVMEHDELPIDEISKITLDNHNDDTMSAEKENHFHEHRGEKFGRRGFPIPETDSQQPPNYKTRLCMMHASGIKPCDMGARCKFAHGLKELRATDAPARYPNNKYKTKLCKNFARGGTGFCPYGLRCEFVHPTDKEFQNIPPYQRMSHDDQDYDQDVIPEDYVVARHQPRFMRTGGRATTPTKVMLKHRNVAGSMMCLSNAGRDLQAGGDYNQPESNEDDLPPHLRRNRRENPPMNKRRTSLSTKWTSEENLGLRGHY
# [12] = target: T4, RNA-binding protein pos-1 (Caenorhabditis elegans, UniProt G5EF15); assay: inhibitors of POS-1/mex-3 RNA binding, dose response, biochemical, fluorescence polarization (AID 1964);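 also: purified POS-1 fused to maltose binding protein made in E. coli; potency of compounds blocking POS-1 binding to fluorescent RNA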
# T4 sequence (G5EF15 whole entry): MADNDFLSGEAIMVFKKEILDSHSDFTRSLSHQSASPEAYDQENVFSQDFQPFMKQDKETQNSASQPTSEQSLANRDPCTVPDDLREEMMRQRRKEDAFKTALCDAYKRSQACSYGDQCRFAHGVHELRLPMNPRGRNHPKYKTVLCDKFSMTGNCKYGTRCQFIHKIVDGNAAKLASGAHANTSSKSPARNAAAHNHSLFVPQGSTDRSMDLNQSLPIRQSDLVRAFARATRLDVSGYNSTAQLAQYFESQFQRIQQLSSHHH
# Genome polyprotein = Genome polyprotein (dengue virus type 2, UniProt P29990); assay: Dengue-2 NS5 methyltransferase inhibitors, primary screen, biochemical, confirmation dose response (AID 588689); type: functional
# [13] = target: T5, High affinity choline transporter 1 (Homo sapiens, UniProt Q9GZV3); assay: CHT inhibitors, dose response, cell-based, 5-point CRC, membrane potential dye (AID 504840); type: functional
# T5 sequence (Q9GZV3 whole entry): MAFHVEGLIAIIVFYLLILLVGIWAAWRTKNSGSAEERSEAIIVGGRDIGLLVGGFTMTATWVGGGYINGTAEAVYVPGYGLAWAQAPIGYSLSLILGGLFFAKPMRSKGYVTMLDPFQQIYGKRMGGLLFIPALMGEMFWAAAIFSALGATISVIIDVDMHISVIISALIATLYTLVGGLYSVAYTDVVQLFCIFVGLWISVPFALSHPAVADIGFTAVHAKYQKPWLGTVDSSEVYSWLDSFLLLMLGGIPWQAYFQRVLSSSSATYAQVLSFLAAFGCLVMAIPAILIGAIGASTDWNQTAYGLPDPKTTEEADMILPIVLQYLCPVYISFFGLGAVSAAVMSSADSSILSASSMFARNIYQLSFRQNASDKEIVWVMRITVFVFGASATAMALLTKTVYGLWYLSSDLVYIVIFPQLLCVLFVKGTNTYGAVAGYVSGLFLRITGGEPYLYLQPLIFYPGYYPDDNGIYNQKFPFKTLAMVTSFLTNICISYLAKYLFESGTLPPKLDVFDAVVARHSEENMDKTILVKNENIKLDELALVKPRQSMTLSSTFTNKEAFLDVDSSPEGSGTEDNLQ
# Protein skinhead-1 = target: T6, Protein skinhead-1 (Caenorhabditis elegans, UniProt P34707); type: functional
# T6 sequence (P34707 whole entry): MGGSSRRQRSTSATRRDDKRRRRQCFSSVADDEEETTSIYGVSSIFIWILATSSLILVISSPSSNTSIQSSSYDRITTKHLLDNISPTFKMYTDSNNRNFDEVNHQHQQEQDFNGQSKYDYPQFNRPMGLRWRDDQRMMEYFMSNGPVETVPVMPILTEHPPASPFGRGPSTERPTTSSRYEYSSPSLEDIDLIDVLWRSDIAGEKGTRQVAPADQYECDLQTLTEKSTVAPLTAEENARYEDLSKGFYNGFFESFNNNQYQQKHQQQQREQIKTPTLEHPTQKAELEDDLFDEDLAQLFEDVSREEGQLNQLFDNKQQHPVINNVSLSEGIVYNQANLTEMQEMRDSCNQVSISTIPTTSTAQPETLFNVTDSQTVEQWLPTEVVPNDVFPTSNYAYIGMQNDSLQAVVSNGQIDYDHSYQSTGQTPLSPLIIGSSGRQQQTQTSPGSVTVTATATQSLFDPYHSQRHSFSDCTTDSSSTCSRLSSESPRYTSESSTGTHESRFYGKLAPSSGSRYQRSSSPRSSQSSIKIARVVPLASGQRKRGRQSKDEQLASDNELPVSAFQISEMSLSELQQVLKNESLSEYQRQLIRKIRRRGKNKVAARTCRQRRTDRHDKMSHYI
# Cytochrome P450 2D6 = Cytochrome P450 2D6 (Homo sapiens, UniProt P10635);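 also: CYP2D6 member of a cytochrome P450 panel assay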
# Chain of Cytochrome P450 2D6 (P10635 whole entry): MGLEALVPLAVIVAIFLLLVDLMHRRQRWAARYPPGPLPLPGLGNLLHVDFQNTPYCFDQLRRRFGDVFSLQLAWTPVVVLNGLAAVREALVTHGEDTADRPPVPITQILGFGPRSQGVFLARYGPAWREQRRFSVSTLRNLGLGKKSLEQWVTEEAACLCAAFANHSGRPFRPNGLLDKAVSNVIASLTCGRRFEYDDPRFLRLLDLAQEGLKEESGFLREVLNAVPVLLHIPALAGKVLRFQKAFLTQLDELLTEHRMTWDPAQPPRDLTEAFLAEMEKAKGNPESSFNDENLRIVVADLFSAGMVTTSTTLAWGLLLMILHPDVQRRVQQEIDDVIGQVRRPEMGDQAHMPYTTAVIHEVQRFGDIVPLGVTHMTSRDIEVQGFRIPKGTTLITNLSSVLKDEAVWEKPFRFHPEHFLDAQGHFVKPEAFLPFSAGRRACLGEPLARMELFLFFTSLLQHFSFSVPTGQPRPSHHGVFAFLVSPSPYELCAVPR
# Chain of Genome polyprotein (P29990 2492-3391 limits assumed): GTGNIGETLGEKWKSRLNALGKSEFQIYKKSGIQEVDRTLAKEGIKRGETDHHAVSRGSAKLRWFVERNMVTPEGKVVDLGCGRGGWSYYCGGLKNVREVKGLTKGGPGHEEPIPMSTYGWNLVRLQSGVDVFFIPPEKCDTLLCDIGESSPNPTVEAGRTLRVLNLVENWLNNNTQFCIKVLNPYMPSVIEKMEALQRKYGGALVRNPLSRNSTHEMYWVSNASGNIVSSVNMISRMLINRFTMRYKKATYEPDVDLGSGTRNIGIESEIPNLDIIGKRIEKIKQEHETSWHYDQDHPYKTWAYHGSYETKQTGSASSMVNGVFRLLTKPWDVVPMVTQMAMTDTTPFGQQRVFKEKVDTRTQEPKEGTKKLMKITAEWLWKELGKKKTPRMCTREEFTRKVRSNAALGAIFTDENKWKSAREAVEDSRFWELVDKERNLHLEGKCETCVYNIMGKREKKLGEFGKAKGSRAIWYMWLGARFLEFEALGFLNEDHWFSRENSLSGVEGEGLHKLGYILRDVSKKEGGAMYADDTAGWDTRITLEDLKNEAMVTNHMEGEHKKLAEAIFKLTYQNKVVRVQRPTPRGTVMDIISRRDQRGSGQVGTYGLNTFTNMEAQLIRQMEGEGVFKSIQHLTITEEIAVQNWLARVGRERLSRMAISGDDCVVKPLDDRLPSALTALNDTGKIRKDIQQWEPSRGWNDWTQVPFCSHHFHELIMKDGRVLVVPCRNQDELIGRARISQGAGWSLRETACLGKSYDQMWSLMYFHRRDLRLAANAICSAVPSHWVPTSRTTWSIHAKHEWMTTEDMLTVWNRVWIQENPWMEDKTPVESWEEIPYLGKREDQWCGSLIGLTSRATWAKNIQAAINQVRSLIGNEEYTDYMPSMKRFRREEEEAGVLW
# Chain of FAD-linked sulfhydryl oxidase ALR (P55789 whole entry): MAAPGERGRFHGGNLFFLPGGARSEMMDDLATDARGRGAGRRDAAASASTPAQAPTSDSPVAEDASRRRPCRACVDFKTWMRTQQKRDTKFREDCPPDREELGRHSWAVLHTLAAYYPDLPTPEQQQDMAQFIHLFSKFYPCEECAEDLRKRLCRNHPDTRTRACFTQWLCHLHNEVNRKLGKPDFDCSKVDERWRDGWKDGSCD
smiles,measurement,setting,value
COC(=O)c1ccccc1NC(=O)CN1C(=O)c2ccccc2S1(=O)=O,IC50,Leucine aminopeptidase,18.1 µM (active)
COc1ccc(-c2cc(-c3ccc(N)cc3)nc(N)c2C#N)cc1OC,AC50,[1],0.794 µM (active)
CC1=C(C(=O)Nc2ccc([N+](=O)[O-])cc2)C(c2cccc(C(F)(F)F)c2)N=C(S)N1c1ccccc1 (configuration not stated),EC50,Streptokinase A,18.8 µM (active)
same,EC50,Streptococcus,20.5 µM (active)
same,EC50,[2],9.06 µM (active)
same,EC50,[3],11.5 µM (active)
same,EC50,[4],> 60 µM (inconclusive)
same,EC50,[5],2.05 µM (active)
same,EC50,[6],7.84 µM (active)
COc1ccc(S(=O)(=O)N2CCN=C2SCc2cccnc2)cc1,AC50,[1],0.243 µM (active)
COc1cc(C(=O)NCC(=O)N2CCN(S(=O)(=O)c3cc(C)ccc3C)CC2)cc(OC)c1OC,EC50,BJ [7],13.4 µM (active)
same,EC50,BJ [8],31.8 µM (active)
same,EC50,[9],14.5 µM (active)
same,EC50,BJ [10],16.3 µM (active)
COc1ccccc1C(=O)N1CCN=C1SCc1cccnc1,AC50,[1],0.009 µM (active)
CSC1=NSC2=NC(=O)/C(=C\c3c[nH]c4ccccc34)C(=N)N12,EC50,[11],17.9 µM (inconclusive)
same,EC50,Streptokinase A,> 150 µM (not active)
same,EC50,Streptococcus,> 150 µM (not active)
same,EC50,[12],> 300 µM (inconclusive)
same,IC50,Genome polyprotein,> 100 µM (active)
same,EC50,[6],1.95 µM (active)
Cc1ccc(NC(=O)CSc2nnc(NC(=O)CN3CCOCC3)s2)cc1,IC50,Leucine aminopeptidase,9.15 µM (active)
COc1cccc(/C=C2/SC(=O)N(CC(=O)N3CCc4ccccc4C3)C2=O)c1OCC(=O)O,IC50,Leucine aminopeptidase,16.2 µM (active)
Oc1cc(-c2ccccc2)nc2nc(COc3ccccc3)nn12,IC50,Leucine aminopeptidase,7.61 µM (active)
CCc1cc2c(N3CCN(c4nnc(CC)s4)CC3)ncnc2s1,IC50,[13],3.63 µM (active)
Cc1cccc(C(=O)Nc2nnc(-c3ccncc3)o2)c1,AC50,[1],2.35 µM (active)
COc1ccc(-c2cc(=O)oc3cc(OC(C)C(=O)O)ccc23)cc1 (configuration not stated),IC50,Leucine aminopeptidase,43.9 µM (active)
O=C(CSc1nnc(NC2CCCCC2)s1)NN1C(=O)NC2(CCCCC2)C1=O,IC50,Leucine aminopeptidase,10.5 µM (active)
CCOc1ccc(/C=C/c2nc(O)nc(O)c2[N+](=O)[O-])cc1,IC50,Genome polyprotein,45.9 µM (active)
Cc1ccc(N2NC(=O)/C(=C/c3ccc(-c4ccc(Cl)c(C(=O)O)c4)o3)C2=O)cc1C,IC50,Genome polyprotein,79.1 µM (active)
CCCc1cc(C(=O)NN=C(S)NC(C)c2ccccc2)cs1 (configuration not stated),IC50,[13],12.6 µM (active)
Cc1noc(NS(=O)(=O)c2ccc(N/C=C\C(=O)c3ccc4c(c3)OCO4)cc2)c1C,IC50,Leucine aminopeptidase,13.9 µM (active)
Cc1cccc(-c2cnn(-c3cccc([N+](=O)[O-])c3)c2N)c1,AC50,[1],0.287 µM (active)
COc1ccc(/C=C2/C(=O)NC(=O)N(c3ccccc3)C2=O)cc1CN1C(=O)c2ccccc2C1=O,IC50,Genome polyprotein,73.9 µM (active)
Cc1ccc(C(=O)Nc2ncc([N+](=O)[O-])s2)cc1,IC50,Protein skinhead-1,> 100 µM (inactive)
same,IC50,[13],10.5 µM (active)
Nc1nn(-c2ccccc2)c(N)c1N=Nc1cccc(F)c1,EC50,BJ [7],3.92 µM (active)
same,EC50,BJ [8],124 µM (active)
same,EC50,[9],1.94 µM (active)
same,EC50,BJ [10],36.7 µM (inconclusive)
CCN(CC)c1ccc2c(c1)OC(N)=C(C#N)C2c1cccnc1 (configuration not stated),EC50,BJ [7],0.368 µM (inconclusive)
same,EC50,BJ [8],0.341 µM (inconclusive)
same,EC50,[9],0.347 µM (active)
same,AC50,Cytochrome P450 2D6,15.8 µM (inconclusive)
same,EC50,BJ [10],0.396 µM (inconclusive)
O=C(O)CCc1ccc(-c2ccc(Cl)cc2)o1,AC50,[1],2.22 µM (active)
CCN(CC)S(=O)(=O)c1cccc(-c2csc(C)n2)c1,AC50,[1],4.41 µM (active)
COc1ccc(C(=O)N(C)C2CCCc3ccccc32)cc1OC1CCN(C(C)C)CC1 (configuration not stated),IC50,[13],12.6 µM (active)
CC1(C)c2[nH]c3ccccc3c2C[C@@H]2C(=O)N(Cc3ccccc3)C(=O)N21,IC50,[13],12.9 µM (active)
O=C(CCNS(=O)(=O)c1ccccc1C(F)(F)F)N1CCN(c2ccccc2O)CC1,AC50,[1],5.51 µM (active)
COc1ccc(C(=O)N2CCCCCC2)cc1OC1CCN(C(C)C)CC1,IC50,[13],13.9 µM (active)
COc1cc(/C=N/c2cccc(C)c2)c(O)c([N+](=O)[O-])c1,IC50,[13],13.2 µM (active)
